Laboratory results published in patent EP4772560A1, “POLYESTER RESIN COMPRISING REGENERATED BIS(2-HYDROXYETHYL)TEREPHTHALATE, AND ARTICLE COMPRISING POLYESTER RESIN” (SK Chemicals Co., Ltd., priority 2023, dated 2025).

Test: Thermal property drop index (TDI) calculated from HPLC peak area fractions of recycled BHET
Format: physicochemical
Conditions: thermal property drop index = [DEG-ester-1] + [DEG-ester-2] × 2 + exp[HA-ester], from HPLC peak area fractions (%)
Protocol: About 0.01 g of recycled bis(2-hydroxyethyl) terephthalate was diluted in about 20 ml of methanol, which was analyzed by high-performance liquid chromatography (HPLC) (model: Waters e2695, column: C18 (4.6 × 250 mm), 5 µm, UV detector: 242 nm, injection volume: 10 µl, eluent (gradient) A: H2O + H3PO4, B: acetonitrile) Thereafter, the peak area fractions (%) of the following components among the total peak area of HPLC were obtained. • MHET: monohydroxyethyl terephthalate • BHET: bis(2-hydroxyethyl) terephthalate, • DEG-ester-1: 2-hydroxyethyl[2-(2-hydroxyethoxy)ethyl] terephthalate • DEG-ester-2: bis[2-(2-hydroxyethoxy)ethyl]benzene-1,4-dicarboxylate • HA-ester: 2-hydroxyethyl(2-acetoxyethyl) terephthalate • Dimer: BHET dimer • Trimer: BHET trimer
Recycled bis(2-hydroxyethyl) terephthalate was subjected to HPLC analysis in the same manner as in section (1) above. The thermal property drop index (TDI) defined by the following equation was then calculated. TDI = [DEG−ester−1] + [DEG−ester−2] × 2 + exp^(∧) [HA−ester] [formula]
Here, DEG-ester-1 is the peak area fraction (%) of 2-hydroxyethyl[2-(2-hydroxyethoxy)ethyl] terephthalate, DEG-ester-2 is the peak area fraction (%) of bis[2-(2-hydroxyethoxy)ethyl]benzene-1,4-dicarboxylate, and HA-ester is the peak area fraction (%) of 2-hydroxyethyl(2-acetoxyethyl) terephthalate. It was calculated by taking only the numerical values excluding the units of these parameters.

## O=C(OCCO)c1ccc(C(=O)OCCO)cc1 [r-BHET A1, bis(2-hydroxyethyl) terephthalate]
Listed as A1
  TDI: 1.71

## O=C(OCCO)c1ccc(C(=O)OCCO)cc1 [r-BHET A2, bis(2-hydroxyethyl) terephthalate]
Listed as A2
  TDI: 1.59

## O=C(OCCO)c1ccc(C(=O)OCCO)cc1 [r-BHET A3, bis(2-hydroxyethyl) terephthalate]
Listed as A3
  TDI: 1.74

## O=C(OCCO)c1ccc(C(=O)OCCO)cc1 [r-BHET A4, bis(2-hydroxyethyl) terephthalate]
Listed as A4
  TDI: 1.86

## O=C(OCCO)c1ccc(C(=O)OCCO)cc1 [r-BHET A5, bis(2-hydroxyethyl) terephthalate]
Listed as A5
  TDI: 2.55

## O=C(OCCO)c1ccc(C(=O)OCCO)cc1 [r-BHET A6, bis(2-hydroxyethyl) terephthalate]
Listed as A6
  TDI: 1.86

## O=C(OCCO)c1ccc(C(=O)OCCO)cc1 [r-BHET A7, bis(2-hydroxyethyl) terephthalate]
Listed as A7
  TDI: 1.71

## O=C(OCCO)c1ccc(C(=O)OCCO)cc1 [r-BHET B1, bis(2-hydroxyethyl) terephthalate, reference compound]
Listed as B1
  TDI: 9.23

## O=C(OCCO)c1ccc(C(=O)OCCO)cc1 [r-BHET B2, bis(2-hydroxyethyl) terephthalate, reference compound]
Listed as B2
  TDI: 6.87
